Results reported in patent publication US4253998A, “Peptides related to somatostatin” (American Home Products Corporation, priority 1979, dated 1981).
Counter-ions that a name gives are not always drawn. Bridge positions count the residues as written; N and C are the ends. Square brackets hold non-standard residues; d marks the D form. Peptide text beside a SMILES is read from it.

Legend:
Format in all cases: in vivo, rat
insulin = test: Inhibition of insulin secretion in arginine-treated, pentobarbital-anesthetized rats (radioimmunoassay)
Protocol: (§1) Male albino rats are divided into two groups (e.g. nine rats per group). Each animal is administered sodium pentobarbital (Nembutal), I. P., at a dose of 50 mg/kg. Fifteen minutes later, one group received a S. C. injection of the test compound in saline (typically 5 to 200 μg/kg.), and the other group (control) receives saline alone. Ten minutes later, each animal is given a 0.5 ml. injection of arginine (300 mg/ml., pH 7.2) into the heart. Five minutes after receipt of the arginine, the animals are decapitated and blood is collected into Trasylol-EDTA. An appropriate aliquot of each sample is assayed for GH, glucagon, and insulin by radioimmunossay. GH is determined by the method of Sinha et al., Endocrinol., 91, 784 (1972); glucagon is determined by the method of Caloona and Unger, "Methods of Hormone Radioimmunoassay," Jaffe et al., Ed., Academic Press, New York, 1974, pages 317-330; and insulin is determined by the method of Hales and Randle, Biochem. J., 88, 137 (1963). The blood concentrations of growth hormone, glucagon, and insulin for the animals given the test compound are compared by standard statistical methods to the blood concentrations for the control group.

growth hormone (GH) [1] = test: Prolonged inhibition of growth hormone in rats (plasma GH 2 to 6 hours after S.C. injection); settings: for Plasma GH: 1000 μg/kg S.C.
Protocol: Albino male rats are arranged in two groups (nine rats per group). One group received a subcutaneous (S. C.) injection of the test compound (typically 1 mg/kg.) in saline, and the other group received a S. C. injection of saline alone (control). […] P. injection of sodium pentobarbital, 50 mg/kg. At the end of the experiment, blood samples are taken from each animal by cardiac puncture, and each sample is mixed with Trasylol-EDTA. An aliquot of each sample is assayed for GH by radioimmunoassay. The blood growth hormone concentrations for the animals receiving the test compound are compared by standard statistical methods to the growth hormone concentrations for the control animals. Compounds considered long-acting product a significant decrease in blood growth hormone concentration at a dose of 1 mg/kg. at least two hours after injection.

glucagon = test: Inhibition of glucagon secretion in arginine-treated, pentobarbital-anesthetized rats (radioimmunoassay)
Protocol: as §1

growth hormone (GH) [2] = test: Inhibition of growth hormone secretion in arginine-treated, pentobarbital-anesthetized rats (radioimmunoassay)
Protocol: as §1

## C[C@@H](O)[C@@H]1NC(=O)[C@H](CCCCN)NC(=O)[C@@H](Cc2c[nH]c3ccccc23)NC(=O)[C@H](Cc2ccccc2)NC(=O)[C@H](Cc2ccccc2)NC(=O)[C@H](Cc2c[nH]cn2)NC(=O)[C@H](CCCNC(=N)N)NC(=O)[C@@H](N)CSSC[C@@H](C(=O)O)NC(=O)[C@@H](Cc2ccc(O)cc2)NC(=O)[C@H]([C@@H](C)O)NC(=O)[C@H](Cc2ccccc2)NC1=O [Example 2, L-Cysteinyl-L-Arginyl-L-Histidyl-L-Phenylalanyl-L-Phenylalanyl-D-Tryptophyl-L-Lysyl-L-Threonyl-L-Phenylalanyl-L-Threonyl-D-Tyrosyl-L-Cysteine Cyclic (1→12) Disulfide] (H-CRHFF[dW]KTFT[dY]C-OH; disulfide 1-12)
insulin; Exp. A, 100 μg/kg S.C., control 298 ± 33, p < 0.05
  Insulin: 154 ± 39 μU/ml
insulin; Exp. B, 400 μg/kg S.C., control 187 ± 21, p < 0.01
  Insulin: 70 ± 23 μU/ml
Growth hormone (GH) [1]; Exp. C, 2 hours, control 213 ± 14, p < 0.001
  Plasma GH: 89 ± 5 ng/mL
Growth hormone (GH) [1]; Exp. C, 4 hours, control 182 ± 12, p < 0.001
  Plasma GH: 101 ± 13 ng/mL
Growth hormone (GH) [1]; Exp. D, 5 hours, control 337 ± 36, p < 0.05
  Plasma GH: 230 ± 31 ng/mL
Growth hormone (GH) [1]; Exp. D, 6 hours, control 234 ± 24, not significant
  Plasma GH: 172 ± 34 ng/mL
Growth hormone (GH) [1]; rat, in vivo
  Prolonged inhibition of growth hormone / period of action (in words): shows prolonged inhibition of growth hormone
glucagon; Exp. A, 100 μg/kg S.C., control 61 ± 8, p < 0.01
  Glucagon: 22 ± 7 pg/mL
glucagon; Exp. B, 400 μg/kg S.C., control 41 ± 5, p < 0.01
  Glucagon: 9 ± 1 pg/mL
Growth hormone (GH) [2]; Exp. A, 100 μg/kg S.C., blood 15 min after dose, 5 min after arginine, control 508 ± 13, p < 0.05
  GH: 181 ± 47 ng/mL
Growth hormone (GH) [2]; Exp. B, 400 μg/kg S.C., control 234 ± 36, p < 0.01
  GH: 67 ± 13 ng/mL

## C[C@@H](O)[C@@H]1NC(=O)[C@H](CCCCN)NC(=O)[C@@H](Cc2c[nH]c3ccccc23)NC(=O)[C@H](Cc2ccccc2)NC(=O)[C@H](Cc2ccccc2)NC(=O)[C@H](Cc2c[nH]cn2)NC(=O)[C@H](Cc2c[nH]cn2)NC(=O)[C@@H](N)CSSC[C@@H](C(=O)O)NC(=O)[C@@H](CO)NC(=O)[C@H]([C@@H](C)O)NC(=O)[C@H](Cc2ccccc2)NC1=O [Example 6, L-Cysteinyl-L-Histidyl-L-Histidyl-L-Phenylalanyl-L-Phenylalanyl-D-Tryptophyl-L-Lysyl-L-Threonyl-L-Phenylalanyl-L-Threonyl-D-Seryl-L-Cysteine Cyclic (1→12) Disulfide Triacetate Salt] (H-CHHFF[dW]KTFT[dS]C-OH; disulfide 1-12)
insulin; Exp. F, 100 μg/kg S.C., control 75 ± 8, not significant
  Insulin: 60 ± 10 μU/ml
glucagon; Exp. F, 100 μg/kg S.C., control 162 ± 29, p < 0.01
  Glucagon: 55 ± 12 pg/mL
Growth hormone (GH) [2]; Exp. F, 100 μg/kg S.C., control 363 ± 74, p < 0.01
  GH: 83 ± 16 ng/mL

## C[C@@H](O)[C@@H]1NC(=O)[C@H](CCCCN)NC(=O)[C@@H](Cc2c[nH]c3ccccc23)NC(=O)[C@H](Cc2ccccc2)NC(=O)[C@H](Cc2ccccc2)NC(=O)[C@H](CCC(=O)O)NC(=O)[C@H](CCCNC(=N)N)NC(=O)[C@@H](N)CSSC[C@@H](C(=O)O)NC(=O)[C@@H](Cc2ccc(O)cc2)NC(=O)[C@H]([C@@H](C)O)NC(=O)[C@H](Cc2ccccc2)NC1=O [Example 4, L-Cysteinyl-L-Arginyl-L-α-Glutamyl-L-Phenylalanyl-L-Phenylalanyl-D-Tryptophyl-L-Lysyl-L-Threonyl-L-Phenylalanyl-L-Threonyl-D-Tyrosyl-L-Cysteine Cyclic (1→12) Disulfide Triacetate Salt] (H-CREFF[dW]KTFT[dY]C-OH; disulfide 1-12)
insulin; Exp. E, 200 μg/kg S.C., control 336 ± 31, p < 0.01
  Insulin: 128 ± 33 μU/ml
glucagon; Exp. E, 200 μg/kg S.C., control 62 ± 10, not significant
  Glucagon: 41 ± 14 pg/mL
Growth hormone (GH) [2]; Exp. E, 200 μg/kg S.C., control 354 ± 57, p < 0.01
  GH: 81 ± 6 ng/mL
